Consider five compounds from patent US20070117794A1, “Methods of treatment using oxytocin receptor agonists” (Wyeth, priority 2005, published 2007).

The test system of experiment [1] is Male Sprague-Dawley derived Rats. As to the kind of experiment: Prepulse inhibition of the acoustic startle reflex (PPI), d-Amphetamine disrupted. The format is in vivo, rat. The settings on record: for reversal of d-amphetamine induced disruption of PPI: i.p., 30 mins prior to test, hydrochloride. The text has this: (§1) Prepulse inhibition of the acoustic startle reflex (PPI) is an operational measure of sensorimotor gating that can be measured across many species. Deficits in PPI have been reported in patients with schizophrenia, leading to its use as a preclinical model of the disease. In rats, PPI is decreased in a manner homologous to that seen in schizophrenia following administration of certain psychotomimetic drugs (e.g. MK801; amphetamine). In our study we utilized MK801, a non-competitive NMDA antagonist and d-Amphetamine, a non-selective dopamine agonist.
(§2) Animals: Male Sprague-Dawley derived Rats (SD) weighing 200-250 g were group housed in standard bedding cages, allowed access to food and water ad libitum, and maintained on a 12-hour light dark cycle. All behavioral testing was performed during the light cycle. All studies were previously approved by the Institutional Animal Care and Use Committee, and performed in accordance to the Guide for the Care and Use of Laboratory Animals as adopted and promulgated by the National Institutes of Health.
(§3) Test Compounds: The oxytocin agonist cpd A was dissolved in a 1% Tween-80/1% DMSO/saline vehicle. MK801 (Sigma, St. Louis, Mo.) was dissolved in 2% Tween-80/saline. d-Amphetamine (Sigma, St. Louis, Mo.) was dissolved in saline.
(§4) Each testing chamber (SR-LAB system, San Diego Instruments) consisted of a Plexiglas cylinder (8.8 cm in diameter) mounted on a frame and held in position by four metal pins to a base unit. Movement of the rat within the cylinder was detected by a piezoelectric accelerometer attached below the frame. […] Presentation of acoustic pulse and prepulse stimuli were controlled by the SR-LAB software and interface system, which also digitized, rectified and recorded the responses from the accelerometer. Mean startle amplitude was determined by averaging 100, 1 ms readings taken from the beginning of the pulse stimulus onset. For calibration purposes, sound levels were measured with a Quest sound level meter, scale “A”, with the microphone placed inside the Plexiglas cylinder. […]

Experiment [2] has the same test system. As to the kind of experiment: Prepulse inhibition of the acoustic startle reflex (PPI), MK801 disrupted. The experiment is classed as in vivo, rat.
From the text: as §1, §2, §3, §4
Startle amplitude was defined as the mean value of pulse alone trials. To evaluate the effect of drug treatment on startle response, data from the pulse alone trials was analyzed using one-factor ANOVA with repeated measures (one-way randomized block design), followed by a least significant difference (LSD) post-hoc test (comparison was made to vehicle/disrupting agent control). […] Although data for gating at three different prepulse intensities was generated, an averaged gating score across all prepulse intensities was calculated and this was analyzed by one factor ANOVA with repeated measures (one-way randomized block design). […]

In another experiment the test system is Male Swiss-Webster mice. Briefly: Four-Plate Test (FPT), punished crossings. The experiment is classed as in vivo, mouse. As to conditions: for reversal of the anxiolytic-like effect of cpd A / blockade of the anxiolytic-like effect of cpd A (in words): co-administered with cpd A 10 mg/kg; for blockade of the anxiolytic-like effect of cpd A (in words): cpd B 10-30 mg/kg. As to the method: Animals: Male Swiss-Webster mice weighing 18-24 g were housed in groups of 15 in hanging wire cages, allowed access to food and water ad libitum, and maintained on a 12-hour light dark cycle. All behavioral testing was performed during the light cycle. All studies were previously approved by the Institutional Animal Care and Use Committee, and performed in accordance to the Guide for the Care and Use of Laboratory Animals as adopted and promulgated by the National Institutes of Health.
Test Compounds: Oxytocin (American Peptide Company, Sunnyvale, Calif.) was dissolved in a saline vehicle. The oxytocin agonist 4,-(3,5-Dihydroxy-benzyl)-piperazine-1-carboxylic acid 2-methyl-4-(3-methyl-4,10-dihydro-3H-2,3,4,9-tetra-aza-benzo[f]azulene-9-carbonyl)-benzylamide (hereinafter “cpd A”) and oxytocin antagonist 10-[(2-Methyl-2′-trifluoromethyl-[1,1′-biphenyl]-4-yl)carbonyl]-10,11-dihydro-5H-pyrrolo[2,1-c][1,4]benzodiazepine-3-carboxylic acid-bis-(2-hydroxy-ethyl)-amide (hereinafter “cpd B”) (Patent W/O 02/083680) were prepared and dissolved in a 1% Tween-80/1% DMSO/saline vehicle.
ICV injections: Mice were lightly anesthetized with halothane. Oxytocin was administered into either the left or right ventricle by visual location. A 26 gauge Hamilton syringe with 3 mm needle was used for injections and the injection site was visualized by locating the middle of the invisible line that runs diagonally from the left eye to the right ear. Test compounds were injected in a 2 μl total volume.
Four-Plate Test (FPT:) The four-plate apparatus consists of a Plexiglas chamber (18×25×16 cm) floored with four identical rectangular metal plates (8×11 cm), which are separated from one another by a gap of 4 mm and connected to a computerized device that can deliver electric shocks (0.8 mA, 0.5 sec) (Aron et al. Evaluation of a rapid technique for detecting minor tranquilizers, Neuropharmacology 10: 459-69 (1971)). In this test, mice are placed into the chamber and following a brief (18 seconds) habituation period, the animal's innate motivation to explore the novel environment is suppressed by the delivery of a mild foot shock every time the animal crosses any of the boundaries (gaps) while moving from one plate to another (referred to as a ‘punished crossing’). Following any punished crossing, there is a 3-second time out where the mouse may cross the electric plates without receiving another shock. An experimenter blind to the dosing conditions administers shocks, and a computer records the total number of punished crossings an animal makes during a 1-minute testing period. […] Pharmacol Biochem Behav 65: 339-44 (2000)). In all experiments, the testing procedure consisted of either a single injection or two injections followed by a test session 30 minutes later.
Statistical Analysis: One-way analysis of variance (ANOVA) was performed to determine effects of test compound treatments, followed by Least Significant Difference Tests for a post hoc analysis. All figures are shown with average ±SEM.

Entries after “also recorded” stand apart in the source; their conditions may differ.

On to `Cc1cc(C(=O)N2Cc3cnn(C)c3Nc3ccccc32)ccc1CNC(=O)N1CCN(Cc2cc(O)cc(O)c2)CC1.Cl` [Cpd A (HCl salt), 4,-(3,5-Dihydroxy-benzyl)-piperazine-1-carboxylic acid 2-methyl-4-(3-methyl-4,10-dihydro-3H -2,3,4,9-tetra-aza-benzo[f]azulene-9-carbonyl)-benzylamide hydrochloride], for which the “reversal of d-amphetamine induced disruption of PPI” value was “reversed d-amphetamine induced disruption at 5 dB and 10 dB; also recorded: reversed d-amphetamine—induced deficit at 5 dB and 10 dB” in experiment [1] (Cpd A (HCl salt) 10 mg/kg, 10 mg/kg); “reversed the d-amphetamine induced disruption at 10 dB” in experiment [1] (Cpd A (HCl salt) 30 mg/kg, 30 mg/kg).
In the case of `C[C@]12N[C@H](Cc3ccccc31)c1ccccc12` [MK801], in experiment [2] (MK801 0.1 mg/kg s.c., 10 min prior to test, 5 dB, 10 dB & 15 dB prepulse, 0.1 mg/kg), the “disruption of PPI” value is on record as “produced significant disruption in PPI across three prepulse intensities; also recorded: produced significant disruption across all three prepulse intensities”. Moreover, the startle alone entry in experiment [2] (MK801 0.1 mg/kg s.c., 10 min prior to test, p >0.05) is reported as “no effect on startle alone”.
Take `Cc1cc(C(=O)N2Cc3cnn(C)c3Nc3ccccc32)ccc1CNC(=O)N1CCN(Cc2cc(O)cc(O)c2)CC1` [cpd A, 4,-(3,5-Dihydroxy-benzyl)-piperazine-1-carboxylic acid 2-methyl-4-(3-methyl-4,10-dihydro-3H-2,3,4,9-tetra-aza-benzo[f]azulene-9-carbonyl)-benzylamide]: the “increase in punished crossings from vehicle” value with Male Swiss-Webster mice (cpd A 10 mg/kg, ip, 30 minutes prior to testing, p<0.05) is reported as 32%; in the experiment on Male Swiss-Webster mice (cpd A 30 mg/kg, ip, 30 minutes prior to testing, p<0.05) it was 25%. In addition, the “punished crossings (effect in words)” value in the experiment on Male Swiss-Webster mice (cpd A 10 mg/kg, ip, antagonist study (FIG. 3), p<0.05, 10 mg/kg) is “increases punished crossings; also recorded: increased punished crossings compared to vehicle”; with Male Swiss-Webster mice (cpd A 3-100 mg/kg, ip, 30 minutes prior to testing), “increases the number of punished crossings; also recorded: significant overall effect on punished crossings”. Also, the “reversal of MK801 induced deficits in PPI” value in experiment [2] (Cpd A 30 mg/kg i.p. (highest dose of 3-30 mg/kg), 30 mins prior to test) is “reversed MK801 induced deficits in PPI at 10 dB & 15 dB levels; also recorded: reversed MK801 induced disruption at 10 dB and 15 dB”.
On to `Cc1cc(C(=O)N2Cc3ccc(C(=O)N(CCO)CCO)n3Cc3ccccc32)ccc1-c1ccccc1C(F)(F)F` [cpd B, 10-[(2-Methyl-2′-trifluoromethyl-[1,1′-biphenyl]-4-yl)carbonyl]-10,11-dihydro-5H-pyrrolo[2,1-c][1,4]benzodiazepine-3-carboxylic acid-bis-(2-hydroxy-ethyl)-amide], for which the “reversal of the anxiolytic-like effect of cpd A” value stood at 63% in the experiment on Male Swiss-Webster mice (cpd B 10 mg/kg, ip) and 100% in the experiment on Male Swiss-Webster mice (cpd B 30 mg/kg, ip, p<0.05). For the same compound, the “blockade of the anxiolytic-like effect of cpd A (in words)” value was “blocked the anxiolytic-like effect of cpd A in a dose-dependent manner” in the experiment with Male Swiss-Webster mice (ip) and “dose-dependently blocks the anxiolytic-like effect of Cpd A” in the experiment on Male Swiss-Webster mice (ip, listed as Cpd B). For the same compound, the “punished crossings (effect in words)” value in the experiment with Male Swiss-Webster mice (cpd B administered alone) was “no effect on punished crossings”.
In the case of `C[C@H](N)Cc1ccccc1` [d-Amphetamine], the “disruption of PPI” value in experiment [1] (d-Amphetamine 4 mg/kg s.c., 10 min prior to test, 5 dB, 10 dB & 15 dB prepulse) is “produced significant disruption across all three prepulse intensities”.
